Source: patent publication US10399944B2, “Pyridin-2-one derivatives of formula (III) useful as EP3 receptor antagonists” (Janssen Pharmaceutica NV, priority 2017, dated 2019)

Tests used:
EP3 receptor [1] = molecular target: T1, EP3 receptor (Homo sapiens, UniProt P43115); assay: [3H]-PGE2 binding assay (EP3 competition binding, SPA beads)
T1 sequence (P43115 1-390): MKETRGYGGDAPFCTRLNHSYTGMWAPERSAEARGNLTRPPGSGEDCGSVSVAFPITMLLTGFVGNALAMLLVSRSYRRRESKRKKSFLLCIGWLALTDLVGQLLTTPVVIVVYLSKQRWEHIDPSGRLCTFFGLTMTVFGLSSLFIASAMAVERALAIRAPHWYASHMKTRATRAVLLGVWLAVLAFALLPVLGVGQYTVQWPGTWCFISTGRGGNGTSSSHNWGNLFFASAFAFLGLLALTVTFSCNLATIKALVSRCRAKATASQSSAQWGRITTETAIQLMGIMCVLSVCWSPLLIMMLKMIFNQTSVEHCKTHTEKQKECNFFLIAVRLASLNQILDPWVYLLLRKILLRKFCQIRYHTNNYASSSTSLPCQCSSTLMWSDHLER

EP3 receptor [2] = molecular target: T1, EP3 receptor; assay: CHO cell cAMP assay (forskolin and sulprostone stimulated, HTRF detection); assay type: cell-based; conditions: sulprostone 700 nM (EC80) and FSK 2 μM (EC70); read-out: CHO_cAMP IC50
mEP3 = molecular target: T2, mEP3 (Mus musculus, UniProt P30557); assay: mEP3 Ki used for dose targeting in the IVGTT model; assay type: binding
T2 sequence (P30557 1-365): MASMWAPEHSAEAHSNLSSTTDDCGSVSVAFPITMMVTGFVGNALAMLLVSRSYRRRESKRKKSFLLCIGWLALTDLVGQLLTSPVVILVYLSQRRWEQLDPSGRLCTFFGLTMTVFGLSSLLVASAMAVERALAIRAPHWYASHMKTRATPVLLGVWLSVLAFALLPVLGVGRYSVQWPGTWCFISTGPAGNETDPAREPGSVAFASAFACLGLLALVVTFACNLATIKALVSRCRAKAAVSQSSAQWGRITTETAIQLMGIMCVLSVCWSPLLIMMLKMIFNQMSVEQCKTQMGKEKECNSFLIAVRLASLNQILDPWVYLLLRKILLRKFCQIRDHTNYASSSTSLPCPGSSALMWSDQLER

male Sprague Dawley rats = assay: IV infused EP3 antagonists on circulating insulin and glucose in the sulprostone infusion IVGTT model; assay type: in vivo, rat; conditions: IV bolus plus infusion at 7×Ki and 10×Ki (targeted), with 3 μg/kg/min sulprostone, SD rats
From the text: IV Infused EP3 Antagonists on Circulating Insulin and Glucose in the Sulprostone Infusion IVGTT Model
Jugular vein and carotid artery cannulated male Sprague Dawley rats (˜250 g, available from Charles River) were housed one rat per suspended cage in a temperature-controlled room with 12-hour light/dark cycle. The rats were allowed ad libitum access to water and maintained on a regular diet. Animals were acclimated for minimum 5 days prior to the start of the experiment. Experimental procedures were carried out in accordance with institutional standards for animal care and were approved by the institute's animal care and use committee.
A blood sample for insulin and blood chemistry was collected at 20 min (t=−20) prior to the start of dosing with sulprostone and/or test compound (EP3 antagonist). […]
Blood samples from all animals were collected into Heparin treated tubes. Background was measured via a glucometer at the 0 and 2 min time points to ensure that the animal received the glucose bolus. Plasma insulin was measured via a Meso Scale Discovery metabolic assay (available from Meso Scale). Plasma glucose, free fatty acid (FFA), triglycerides, cholesterol and ketones were measured on an OLYMPUS AU400E chemistry analyzer. Observations on animal health were recorded throughout the procedure. […]

Structure (SMILES) | Ki (EP3 receptor [1]) [µM] | IC50 (EP3 receptor [2]) [µM] | Ki (mEP3) [µM] | suppression of glucose stimulate insulin secretion (GSIS) by sulprostone (male Sprague Dawley rats)
CCn1cc2c(F)c(-c3ccc(C(/C=C4/OC(=O)NC4=O)(CC)CC)c(=O)[nH]3)ccc2n1 [Compound #14] | > 10 | > 20 | – | –
CC(C)C1(c2ccc(-c3ccc4cccc(F)c4c3)[nH]c2=O)C(=O)Nc2nncn21 (stereo not drawn) [Compound #156] | 0.057 | 0.508 | – | –
CC(C)C(/C=C1\OC(=O)NC1=O)c1ccc(-c2ccc3c(c2)OCCO3)[nH]c1=O (racemic) [Compound #85, (Z)-5-(2-(6-(2,3-dihydrobenzo[b][1,4]dioxin-6-yl)-2-oxo-2,3-dihydropyridin-3-yl)-3-methylbutylidene)oxazolidine-2,4-dione] | 0.044 | 0.122 | – | –
CCn1ncc2c(F)cc(-c3ccc(C(/C=C4\OC(=O)NC4=O)C4CCCCC4)c(=O)[nH]3)cc21 (stereo not drawn) [Compound #127, 5-(2-cyclohexyl-2-(6-(1-ethyl-4-fluoro-1H-indazol-6-yl)-2-oxo-1,2-dihydropyridin-3-yl)ethylidene) oxazolidine-2,4-dione] | 0.046 | 0.548 | – | –
CC(C)C(c1ccc(-c2ccc3cccc(F)c3c2)[nH]c1=O)C1OC(=O)NC1=O (stereo not drawn) [compound 60] | 0.027 | 0.092 | – | –
CCn1ncc2c(F)cc(-c3ccc([C@]4(O)CC[C@H]5C[C@@H]4NC5=O)c(=O)[nH]3)cc21 (stereo in doubt) [Compound #300, 4-(6-(1-ethyl-4-fluoro-1H-indazol-6-yl)-2-oxo-1,2-dihydropyridin-3-yl)-4-hydroxy-6-azabicyclo[3.2.1]octan-7-one] | 0.005 | – | – | –
CC(C)C(/C=C1\OC(=O)NC1=O)c1ccc(-c2ccc3c(c2)OC(F)(F)O3)[nH]c1=O (racemic) [Compound #276, (Z)-5-(2-(6-(2,2-difluorobenzo[d][1,3]dioxol-5-yl)-2-oxo-2,3-dihydropyridin-3-yl)-3-methylbutylidene)oxazolidine-2,4-dione] | 5.65 | 7.6 | – | –
O=C1NC(=O)/C(=C\C2(c3ccc(-c4ccc5cccc(F)c5c4)[nH]c3=O)CC2)O1 [Compound #11] | 0.028 | 0.055 | – | –
CCn1ncc2c(F)cc(-c3ccc(C(/C=C4\OC(=O)NC4=O)C(C)C)c(=O)[nH]3)cc21 (racemic) [Compound #94, 5-(2-(6-(1-ethyl-4-fluoro-1H-indazol-6-yl)-2-oxo-1,2-dihydropyridin-3-yl)-3-methylbutylidene)-oxazolidine-2,4-dione] | 0.02 | 0.181 | – | –
CC(C)[C@@H](c1ccc(-c2ccc3cccc(F)c3c2)[nH]c1=O)[C@H]1OC(=O)NC1=O (relative stereo) [Compound #59] | 0.085 | 0.611 | – | –
CCN1CCOc2ccc(-c3ccc(C(/C=C4\OC(=O)NC4=O)C(C)C)c(=O)[nH]3)cc21 (stereo not drawn) [Compound #137] | 0.054 | 0.218 | – | –
CCn1ncc2c(F)cc(-c3[nH]c(=O)c(C(/C=C4\OC(=O)NC4=O)C(C)C)cc3Cl)cc21 (racemic) [Compound #125, 5-(2-(5-chloro-6-(1-ethyl-4-fluoro-1H-indazol-6-yl)-2-oxo-1,2-dihydropyridin-3-yl)-3-methylbutylidene) oxazolidine-2,4-dione] | 0.487 | 0.658 | – | –
CC(=C1OC(=O)NC1=O)C(c1ccc(-c2ccc3cccc(F)c3c2)[nH]c1=O)C(C)C (stereo not drawn) [Compound 96] | 0.017 | 0.039 | – | –
CC(C)C(CC1OC(=O)NC1=O)c1ccc(-c2ccc3cccc(F)c3c2)[nH]c1=O (stereo not drawn) [compound 74] | 0.008 | 0.027 | – | –
CCn1cnc2c(F)c(-c3ccc(C(C=C4OC(=O)NC4=O)C(C)C)c(=O)[nH]3)ccc21 (stereo not drawn) [Compound #90, 5-(2-(6-(1-ethyl-4-fluoro-1H-benzo[d]imidazol-5-yl)-2-oxo-1,2-dihydropyridin-3-yl)-3-methylbutyli-dene)oxazolidine-2,4-dione] | 0.633 | 5.43 | – | –
CC(C)(C)C(/C=C1/OC(=O)NC1=O)C1C=CC(c2ccc3cccc(F)c3c2)=NC1=O (mixture of isomers) [compound 275, (E)-5-(2-(6-(8-fluoronaphthalen-2-yl)-2-oxo-2,3-dihydropyridin-3-yl)-3,3-dimethylbutylidene)oxazolidine-2,4-dione] | – | > 20 | – | –
CC(C)C(/C=C1\OC(=O)NC1=O)c1ccc(-c2ccc3cccc(F)c3c2)[nH]c1=O (racemic) [Compound #62, (Z)-5-(2-(6-(8-fluoronaphthalen-2-yl)-2-oxo-1,2-dihydropyridin-3-yl)-3-methylbutylidene)oxazolidine-2,4-dione] | – | – | 0.0086 | reverse suppression of glucose stimulate insulin secretion (GSIS) by sulprostone
CC(C)C(/C=C1\OC(=O)NC1=O)c1ccc(-c2ccc3cnsc3c2)[nH]c1=O (stereo not drawn) [Compound #93] | 1.07 | 9.94 | – | –
O=C1NC(=O)[C@]2(CCC[C@H](c3ccc(-c4ccc5ccccc5c4)[nH]c3=O)C2)O1 [Compound #189, Syn-7-(6-(naphthalen-2-yl)-2-oxo-1,2-dihydropyridin-3-yl)-1-oxa-3-azaspiro[4.5]decane-2,4-dione] | 0.016 | 0.109 | – | –
O=C1NC(=O)C2(CCCC(c3ccc(-c4ccc5ccccc5c4)[nH]c3=O)C2)O1 (stereo not drawn) [compound 188, anti-7-(6-(naphthalen-2-yl)-2-oxo-1,2-dihydropyridin-3-yl)-1-oxa-3-azaspiro[4.5]decane-2,4-dione] | 0.015 | 0.12 | – | –
CC(C)[C@H](C[C@@H]1OC(=O)NC1=O)c1ccc(-c2ccc3cccc(F)c3c2)[nH]c1=O (relative stereo) [Compound #81] | 0.006 | 0.015 | – | –
CCN1CCOc2cc(-c3ccc(C(/C=C4\OC(=O)NC4=O)C(C)C)c(=O)[nH]3)ccc21 (stereo not drawn) [Compound #121] | 0.073 | 0.363 | – | –
